In one series the test system is E. coli. The series is described as follows: Cellular uptake monitored by Transmission Electron Microscopy. It counts as cell-based. The following applies: 5 μg/mL, 30 min, FIG. 3A. Here is the method:
(§1) TEM was used to examine whether the retention of C60-pyrrolidine tris acid was localized within the cytosol. Microorganisms were incubated with C60-pyrrolidine tris acid (5 μg/mL) for 30 min. Cells were pelleted by centrifugation at 5,000 rcf (5 min) and washed 5 times with DI H2O. Microorganisms were fixed in 2.5% glutaraldehyde/PBS solution for 30 min. The cells were then pelleted by centrifugation at 5,000 rcf for 5 min. The cell pellet was placed in fresh 2.5% glutaraldehyde/PBS solution at 4° C. overnight. Next, cell pellets were dehydrated by a series of acetone treatments (30% for 15 min, 50% for 15 min, 70% for 15 min, 90% for 15 min and a final treatment at 100% for 30 min, and repeated 3 times), embedded in resin (2:1 mix of propylene oxide:resin for 1 hour, 1:1 mix of propylene oxide:resin for 1 hour, 1:2 mix of propylene oxide: resin for 1 hour, 100% resin overnight, and change to fresh resin 1 h), incubated for 24 h at 37° C., sectioned (60 nm in thickness), and imaged using a Tecnai 12 TEM.
(§2) To test the hypothesis that functionalized C60-pyrrolidine tris acid internalizes within the cell, microorganisms were imaged with TEM. Both E. coli and B. subtilis were incubated with C60-pyrrolidine tris acid, washed to remove excess compound, sectioned into slices of 60 nm thickness, and then imaged by TEM. […]

A further series relates to B. subtilis. The series is described as above. In kind it is cell-based. The following applies: 5 μg/mL, 30 min, FIG. 3B. Here is the method:
as §1, §2

The nature of series [1]: Fluorescence of the probe itself without bacteria. It counts as physicochemical. The settings on record: excitation of 568 nm laser. The text has this:
Methods were developed to distinguish different species of live bacteria by functionalization of C60 with RNA oligonucleotides hybridized with reporter compounds. The signature RNA oligonucleotides are designed in accordance with the signature information on 16s ribosome RNA, which is unique to each species (Reischl et al., Clin Chem 52, 1985-1987 (2006) and Dresios et al., Journal of molecular biology 345, 681-693 (2005), each of which is hereby incorporated by reference in its entirety). The strategy to recognize a certain bacteria is shown in FIGS. 20A-20C and operates as follows: • (1) C60 molecules were functionalized with signature RNA oligonucleotides containing signature information (e.g., calling card) of a certain species. The Signature RNA oligonucleotides were typically screened through bioinformatics analysis. • (2) A reporter sequence, which is conjugated to a fluorophore, was hybridized with the signature sequence. The fluorophore was silent while hybridized but fluoresced once released. • (3) The C60 complex penetrated the bacteria and released the reporter if the bacteria contained ribosomal signature information that matches the signature RNA oligonucleotide on the C60 complex. The released reporter sequence emitted a fluorescent signal and was detected while free in the cytoplasm. […]

Turning to C60-pyrrolidine tris acid, the “Localization in sectioned cells (TEM)” value in the series on E. coli and in the series on B. subtilis was “localizes within the cell” throughout. For the same substance, in series [1], the Autofluorescence result is “no autofluorescence”.

The values are drawn from patent US20200318165A1, “Rapid Identification of Microorganisms” (Board of Regents of the Nevada System of Higher Education, …, priority 2015, published 2020).
